Experimental data reported in PubChem BioAssay (NCI).
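GI50: concentration for 50% inhibition of growth. TGI marks complete inhibition of growth.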

Columns and labels:
Assay in all cases: growth of human tumour cells (NCI), 384-well format
MDA-MB-468 breast = test system: MDA-MB-468 breast
SR leukemia = test system: SR leukemia
HL-60(TB) leukemia = test system: HL-60(TB) leukemia
HS 578T breast = test system: HS 578T breast
NCI-H460 NSCLC = test system: NCI-H460 NSCLC
MALME-3M melanoma = test system: MALME-3M melanoma
NCI-H226 lung = test system: NCI-H226 lung
BT-549 breast = test system: BT-549 breast
SNB-75 CNS = test system: SNB-75 CNS
CCRF-CEM leukemia = test system: CCRF-CEM leukemia
IGROV1 ovarian = test system: IGROV1 ovarian
UACC-62 melanoma = test system: UACC-62 melanoma
NCI-H522 lung = test system: NCI-H522 lung

O=C1Nc2ccc(I)cc2/C1=C/c1cc(Br)c(O)c(Br)c1
GI50 (MDA-MB-468 breast): 11.7 µM
TGI (MDA-MB-468 breast): 25.2 µM
GI50 (SR leukemia): 6.31 µM
TGI (SR leukemia): 18.8 µM
GI50 (HL-60(TB) leukemia): 11.3 µM
TGI (HL-60(TB) leukemia): 23.4 µM
GI50 (HS 578T breast): 14.4 µM
TGI (HS 578T breast): 28.5 µM
GI50 (NCI-H460 NSCLC): 14.9 µM
TGI (NCI-H460 NSCLC): 28.6 µM
GI50 (MALME-3M melanoma): 4.43 µM
TGI (MALME-3M melanoma): 20.8 µM
GI50 (NCI-H226 lung): 27.2 µM
TGI (NCI-H226 lung): 68.5 µM
GI50 (BT-549 breast): 11.7 µM
TGI (BT-549 breast): 26.8 µM
GI50 (SNB-75 CNS): 25.7 µM
TGI (SNB-75 CNS): 51.8 µM
GI50 (CCRF-CEM leukemia): 11.3 µM
TGI (CCRF-CEM leukemia): 23.4 µM
GI50 (IGROV1 ovarian): 18.6 µM
TGI (IGROV1 ovarian): 41 µM
GI50 (UACC-62 melanoma): 7.69 µM
TGI (UACC-62 melanoma): 21 µM
GI50 (NCI-H522 lung): 13.2 µM
TGI (NCI-H522 lung): 26.1 µM
